Reference: PubChem BioAssay (NCI)
Where “and” joins values, the source holds several entries; their conditions need not be identical. Equal entries are not always repeated.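 Each compound was tested at five concentrations against cells in 96-well plates for 48 hours. GI50 = concentration required for 50% inhibition of growth. TGI is the concentration that stops growth completely.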

Tests used:
Assay in all cases: DTP human tumour cell line panel, 48 h
RXF 393 renal = test system: RXF 393 renal
NCI-H23 lung = test system: NCI-H23 lung
UACC-62 melanoma = test system: UACC-62 melanoma
OVCAR-3 ovarian = test system: OVCAR-3 ovarian
EKVX NSCLC = test system: EKVX NSCLC
M14 melanoma = test system: M14 melanoma
SN12C renal = test system: SN12C renal
HOP-62 NSCLC = test system: HOP-62 NSCLC
MCF7 breast = test system: MCF7 breast
SNB-19 CNS = test system: SNB-19 CNS

Row | SMILES | GI50 (RXF 393 renal) | TGI (RXF 393 renal) | GI50 (NCI-H23 lung) [µM] | TGI (NCI-H23 lung) | GI50 (UACC-62 melanoma) | TGI (UACC-62 melanoma) | GI50 (OVCAR-3 ovarian) | TGI (OVCAR-3 ovarian) | GI50 (EKVX NSCLC) | TGI (EKVX NSCLC) | GI50 (M14 melanoma) | TGI (M14 melanoma) | GI50 (SN12C renal) | TGI (SN12C renal) | GI50 (HOP-62 NSCLC) [µM] | TGI (HOP-62 NSCLC) | GI50 (MCF7 breast) | TGI (MCF7 breast) | GI50 (SNB-19 CNS) | TGI (SNB-19 CNS)
1 | Cc1cc(I)cc(CN(C)CCCN2CCSCC2)c1O | 17.2 µM | 39 µM | 23.5 | 65.1 µM | 32 µM | > 100 µM | 29.7 µM | > 100 µM | 29.4 µM | > 100 µM | 17.3 µM | 33.2 µM | 76.6 µM | > 100 µM | 18.4 | 41.9 µM | 18.5 µM | 40.5 µM | 25.6 µM | 55.6 µM
2 | CC(=O)N[C@H]1C=C[C@@H]2/C=C(C)/C=C/[C@@H](C)[C@H]([C@H](C)[C@H](O)[C@@H](C)NC(C)=O)OC(=O)/C=C/C=C(C)\C=C\[C@]2(C)C1 | 0.0103 µM and 0.0045 µM |  |  | 4.65 µM and > 45 µM | 0.0228 µM and 0.0315 µM | 4.65 µM and 13.3 µM | 0.0045 µM | 18 µM |  | 4.65 µM and > 45 µM | 0.00734 µM and 0.0045 µM |  | 0.0212 µM and 0.00535 µM | 4.65 µM and > 45 µM |  | 4.65 µM and > 45 µM | 0.0336 µM and 0.0045 µM | 4.65 µM and > 45 µM | 0.256 µM and 0.072 µM | 4.65 µM and > 45 µM
3 | CCN(CC)CC(O)CNc1ccc(NCC2CO2)c2c1C(=O)c1ccccc1C2=O (configuration not stated) |  | 0.953 µM | 0.26 | 5.2 µM | 0.426 µM | 2.3 µM | 0.299 µM | 2.69 µM |  | 4.72 µM |  | 0.402 µM and 0.674 µM | 0.177 µM | 0.899 µM | 0.297 | 4.02 µM | 0.0284 µM | 0.169 µM |  | 7.52 µM
4 | CC(O)c1cccc(NCc2c3ccccc3c(=O)n3c2oc2ccccc23)c1 (configuration not stated) | 22.5 µM | 67.8 µM | 9.41 | 26.9 µM | 5.45 µM | 22.3 µM | 9.25 µM | 85.2 µM | 3.87 µM | 19.3 µM | 4.5 µM | 25.2 µM | 15.5 µM | > 100 µM | 3.01 | 13.6 µM | > 100 µM | > 100 µM | 16.4 µM | 88.3 µM
5 | C[C@]12C[C@H](c3ccccc3)Nc3ccccc3N1C(c1ccccc1)=NO2 |  | > 100 µM |  | > 100 µM |  | > 100 µM |  | > 100 µM |  | 92.6 µM |  | > 100 µM |  | > 100 µM |  | > 100 µM |  | > 100 µM |  | > 100 µM
6 | COc1cc(OC)cc(C2CC(=O)Nc3c2c(C)nn3-c2nc3ccccc3[nH]2)c1 (configuration not stated) | 3.21 µM | 24.6 µM | 2.79 | 7.73 µM | 1.94 µM | 4.01 µM | 2.3 µM | 5.02 µM | 3.31 µM | > 100 µM | 2.46 µM | 7.27 µM | 3.46 µM | > 100 µM | 2.65 | 6.62 µM | 2.94 µM | > 100 µM | 4.13 µM | > 100 µM
7 | CC(=O)c1c(C)[nH]c(-c2nc3ccc(N4CCN(C)CC4)cc3[nH]2)c1-c1ccc(OCC2CCOCC2)cc1 | 0.696 µM | 2.83 µM | 1.32 | 18.3 µM | 0.172 µM | 11.2 µM | 0.889 µM | 14 µM | 8.36 µM | 37.2 µM | 0.63 µM | 4.64 µM | 1.31 µM | 17.4 µM | 0.524 | 14.7 µM | 0.218 µM | 11.6 µM | 2.2 µM | 25.1 µM
8 | O=C(/C=C/c1ccc(F)cc1)c1ccc(Cl)cc1Cl | 30.5 µM | 93.4 µM | 37.2 | > 100 µM | 39.8 µM | > 100 µM | 25.8 µM | 73 µM | 89.9 µM | > 100 µM | > 100 µM | > 100 µM | 61.8 µM | > 100 µM | > 100 | > 100 µM | 20.6 µM | 62.5 µM | 23.7 µM | 77.8 µM
9 | CO[C@@H]1/C=C\C=C(/C)C(=O)NC2=CC(=O)C(NCCN(C)C)=C(C[C@@H](C)C[C@@H](OC)[C@@H](O)[C@H](C)/C=C(\C)[C@H]1OC(N)=O)C2=O |  | 11.8 µM and 10.8 µM | < 0.0125 | 7.14 µM |  | 1.25 µM and 3.87 µM | 0.068 µM and 0.0369 µM | 6.26 µM and 2.39 µM | 0.641 µM and 0.145 µM | 11.1 µM and 7.59 µM | 0.0125 µM | 6.51 µM and 4.99 µM | 0.0135 µM | 2.78 µM and 3.81 µM | 0.0859 | 17 µM and 19.1 µM |  | 1.88 µM and 3.8 µM |  | 7.99 µM and 15.5 µM
10 | ClCc1cccc(Cn2cnc3c(NC45CC6CC(CC(C6)C4)C5)ncnc32)c1 | 11.4 µM | 36.7 µM | 19.6 | 46.4 µM | 16.3 µM | 36.5 µM | 17.6 µM | 35.9 µM | 18.6 µM | 40.7 µM | 12.1 µM | 27.6 µM | 21.2 µM | 50.9 µM | 20.5 | 37.5 µM | 9.1 µM | 45.5 µM | 17.2 µM | 44.2 µM
11 | O=C1Nc2ccc(C(=O)c3ccco3)cc2/C1=C/c1cc(Cl)c(O)c(Cl)c1 | 2.77 µM | 15.5 µM | 4.74 | 21.7 µM | 2.63 µM | 7.91 µM | 4.32 µM | 10.6 µM | 11 µM | > 25 µM | 1.45 µM | 13.3 µM | 6.53 µM | > 25 µM | 7.45 | > 22.1 µM | 6.1 µM | > 25 µM | 8.52 µM | > 25 µM
12 | Cc1nc2sc(C(=O)Nc3cccc(Cl)c3C)c(N)c2cc1C(=O)/C=C/c1ccccc1 | 0.206 µM | 0.801 µM | 0.755 | 2.44 µM | 0.303 µM | 1.91 µM | 0.199 µM | 0.737 µM | 1.12 µM | 5.69 µM | 0.239 µM | 1.35 µM | 0.532 µM | 1.83 µM | 0.339 | 1.73 µM | 0.192 µM | 3.32 µM | 0.651 µM | 3.11 µM
13 | CSc1ccc(C2=NN(C(=O)c3ccc(F)cc3)C(c3ccc(F)cc3)C2)cc1 (configuration not stated) | 4.8 µM | 20 µM | 18.2 | 36.2 µM | 11.7 µM | 24.5 µM | 10.3 µM | 22.5 µM | 18.9 µM | 37 µM | 9.43 µM | 22.1 µM | 7.21 µM | 19.2 µM | 18.4 | 33.7 µM | 4.98 µM | 17.9 µM | 14.3 µM | 27.5 µM
14 | CN1CCN(CCCN)CC1 |  | > 100 µM |  | > 100 µM |  | > 100 µM |  | > 100 µM |  | > 100 µM |  | > 100 µM |  | > 100 µM |  | > 100 µM |  | > 100 µM |  | > 100 µM
